Each block holds one molecule with its values, some of them ahead of it. Bridge positions count the residues as written; N and C are the ends. Square brackets hold non-standard residues; d marks the D form. Peptide text beside a SMILES is read from it. ξ: configuration not given here. Thr(3ξ) = CC(O)[C@H](N)C(=O)O; αMeV = CC(C)[C@](C)(N)C(=O)O; Nle = CCCC[C@H](N)C(=O)O
Legend:
VPAC2 receptor [1] = target: T1, VPAC2 receptor (Homo sapiens, UniProt P41587); assay: Sup-T1 cAMP agonist assay; format: cell-based; details: human T-lymphoid cell line Sup-T1 expressing VPAC2 receptor; cAMP EIA; 5 min at room temperature; read-out: Sup-T1 cAMP EC50
T1 construct: The human T-lymphoid cell line Sup-Ti, which expresses the VPAC2 receptor; host or cells: Sup-T1 (Sup-Ti [sic]) human T-lymphoid cell line
T1 sequence (P41587 24-438): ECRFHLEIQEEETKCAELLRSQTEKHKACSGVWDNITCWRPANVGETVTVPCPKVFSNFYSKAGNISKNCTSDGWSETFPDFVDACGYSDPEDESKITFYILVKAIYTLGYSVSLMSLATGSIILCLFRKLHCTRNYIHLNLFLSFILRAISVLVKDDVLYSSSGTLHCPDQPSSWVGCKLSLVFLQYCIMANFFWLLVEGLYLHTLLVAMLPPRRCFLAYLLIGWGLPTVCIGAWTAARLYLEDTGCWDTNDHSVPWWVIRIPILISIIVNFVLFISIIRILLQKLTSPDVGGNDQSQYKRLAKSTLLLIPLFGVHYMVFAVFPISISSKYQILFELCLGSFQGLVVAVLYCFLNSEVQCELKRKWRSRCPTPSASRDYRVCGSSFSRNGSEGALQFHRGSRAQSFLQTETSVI
Procedure, shortened: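 Sup-T1 human T-lymphoid cells with endogenous VPAC2 (RPMI 1640, 25 mM HEPES, 10% FBS) were plated at 4×10^4 cells/well and exposed to compound for 5 min at room temperature. After lysis, cAMP was measured by enzyme immunoassay. EC50 came from a sigmoidal fit of 7-concentration dose-response data.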

[2] = tested on: LPS-induced lung inflammation in male C57BL/6 mice; assay: LPS-induced lung inflammation in male C57BL/6 mice (BAL neutrophilia); format: in vivo; details: BAL fluid neutrophilia
Experimental: C57bl/6 mice are pretreated with vehicle or drug prior to an aerosol expose to lipopolysacchride (LPS, 500 μg/ml in sterile saline) for 15-30 minutes. The aerosol is generated by a Pari Ultra neb jet nebulizer, the outlet of which is connected to a small clear plastic chamber [H×W×D, 10.7×25.7×11 cm (4×10×4.5 in)] containing the animals. Bronchoalveolar lavage (BAL) is performed 24 hr later to determine the intensity of cell inflammation. BAL procedure is performed as described below.
Mice are pretreated with vehicle or drug prior to an intranasal administration of lipopolysacchride (0.05-0.3 mg/kg in sterile saline; 50 μl total volume, 25 μl/nostril). Intranasal administration is performed by presenting small droplets of the dosing solution at the nostril using a 25-50 μl eppendorff pipet. BAL is performed 3 to 24 h post LPS challenged as described above to determine the intensity of cell inflammation.
24 h following LPS exposure, animals are anesthetized with pentobarbital (80-100 mg/kg, i.p.), ketamine/xyzaline (80-120 mg/kg/2-4 mg/kg, i.p.) or urethane (1.5-2.4 g/kg, i.p.); and through a small midline neck incision (15-20 mm), the trachea is exposed and cannulated with 20-gauge tubing adapter. Lungs are lavaged with 2×1 ml sterile Hank's balanced salt solution without Ca++ and Mg++(HBSS). Lavage fluid is recovered after 30 sec by gentle aspiration and pooled for each animal. Samples are then centrifuged at 2000 rpm for 10 minutes at 5° C. Supernatant is aspirated, and red blood cells are lysed from the resulting pellet with 0.5 ml distilled water for 30 sec before restoring osmolarity to the remaining cells by the addition of 5 ml of HBSS. Samples are recentrifuged at 2000 rpm for 10 minutes at 5° C. and supernatant aspirated. The resulting pellet is resuspended in 1 ml of HBSS. Total cell number is determined by Trypan Blue (Sigma Chemical, St. Louis, Mo.) exclusion from an aliquot of cell suspension using a hemocytometer or coulter counter. For differential cell counts, an aliquot of the cell suspension is centrifuged in a Cytospin (5 min, 1300 rpm; Shandon Southern Instruments, Sewickley, Pa.) and the slides fixed and stained with a modified Wright's stain (Hema 3 stain kit, Fisher Scientific). Standard morphological criteria is used in classifying at least 300 cells under light microscopy. Data in Table 3 is expressed as BAL cells×10^4/animal for neutrophils and total cells, or percent inhibition of the LPS induced BAL fluid neutrophilia response.

[3] = target: T2, human neutrophil elastase (Homo sapiens, UniProt P08246); assay: Peptide stability to neutrophil elastase (RP HPLC ESI MS); details: halftime with human neutrophil elastase 1 to 2 μg/mL in PBS, ambient temperature, normalized to halftime of the reference standard
T2 sequence (P08246 30-247 limits assumed): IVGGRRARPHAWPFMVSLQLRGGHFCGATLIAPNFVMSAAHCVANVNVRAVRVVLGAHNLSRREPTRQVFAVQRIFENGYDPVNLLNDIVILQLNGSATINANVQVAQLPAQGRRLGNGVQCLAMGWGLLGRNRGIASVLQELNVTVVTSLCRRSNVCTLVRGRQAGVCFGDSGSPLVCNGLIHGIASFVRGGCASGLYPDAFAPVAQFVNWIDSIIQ
Experimental: The proteolytic stabilities of peptide analogs were established with reversed phase high pressure liquid chromatography (RP HPLC) electrospray ionization mass spectrometry (ESI MS). Peptide analogs were incubated with human neutrophile elastase and the quantity of undigested analogs was determined by ESI MS at appropriate time points. Multiple peptide analogs could be included in one experiment as long as they could be differentiated by HPLC retention time and/or by molecular weight. Ac-His Ac-[sequence]Nle-[sequence]NH2 was used in all experiments as a control and as a reference standard. The simultaneous use of multiple peptide analogs together with a reference standard allowed for compensation for variations in the proteolytic fidelity of the enzyme over the multiple experiments. Integrated ion currents obtained for the individual undigested peptide were used for quantitation. For calculation of halftime first-order kinetic behavior was assumed and all calculations were normalized to the halftime of the reference standard.
Peptide stock solutions were prepared in water to a concentration of 2.5 mg/mL. Unless in use, all stock solutions were kept at −20° C. […] Concentrations of the peptide analogs were adjusted accordingly. In order to do the proteolytic digestion, peptides were dissolved in phosphate buffered saline (PBS) to a concentration of 0.1 mg/mL. As many as six different peptide analogs were mixed into one 50 μL reaction volume. The reference standard was added to all experiments as a reference and internal standard. Elastase (Human Neutrophil, Calbiochem, Cat # 324681) was added from an elastase stock solution to a concentration of 1 to 2 μg/mL. Different amounts of the enzyme were chosen to compensate for the differences in the proteolytic stabilities of the peptide analogs. Previously, a stock solution of elastase was prepared in water at a concentration of 1 mg/mL. Small aliquots of the enzyme stock solution were kept at −20° C. to better maintain the enzyme activity by limiting the number of thaw and freeze cycles.
The digestion was done at ambient temperature in an autosampler tube within the autosampler of the HPLC system (Agilent 1100 Series). For a time course, 5 μL aliquots were injected in 70 minute intervals onto the reversed phase HPLC column (Phenomenex, Luna C18, 3μ, 100 ↑, 150×2.00 mm). For the starting time point an aliquot was injected just prior to the addition of the proteolytic enzyme. A total of eight time points could be recorded from one experiment, including the starting point. Peptides were separated on the reversed phase column with a 50 minute gradient of 5% to 30% organic phase. The aqueous phase was 0.05% (v/v) of trifluoroacetic acid in water and the organic one was 0.045% (v/v) of trifluoroacetic acid in acetonitrile. Absorbances were recorded at 214 and 280 nm respectively. All of the column effluent was introduced into the turbo V source of the electrospray ionization mass spectrometer (ABI 4000 QTrap LC/MS/MS System). Mass spectra were acquired in Q3MS mode in a mass range to include all triply charged ions of the non degraded peptide analogs. Care was taken to assure that peptide analogs could clearly be differentiated either by the chromatographic retention time or by the difference in molecular weight. Relative quantities of the respective undigested peptide analog were calculated from the integrated total ion current. A window of 2.5 Da was chosen and the manufacturer's software was used to integrate the individual ion currents. The overall halftime of an individual peptide analog was calculated by assuming first-order kinetic behavior and was normalized with respect to the halftime of the reference standard.

VPAC2 receptor [4] = target: T3, VPAC2 receptor (human, UniProt P41587); assay: cell-based or functional assay
T3 sequence: T1 sequence (P41587 24-438)

- EC50 (VPAC2 receptor [1]): 38 nM
- Relative elastase stability [3]: 3.9
Molecule: CCCC[C@H](NC(=O)[C@H](CCC(N)=O)NC(=O)[C@H](CCCCN)NC(=O)[C@H](CCCNC(=N)N)NC(=O)[C@H](CC(C)C)NC(=O)[C@H](CCCCN)NC(=O)[C@@H](NC(=O)[C@H](Cc1ccc(O)cc1)NC(=O)[C@H](CC(N)=O)NC(=O)[C@H](CCC(=O)O)NC(=O)[C@@H](NC(=O)[C@H](Cc1ccccc1)NC(=O)[C@@H](NC(=O)[C@H](C)NC(=O)[C@H](CC(=O)O)NC(=O)[C@H](CO)NC(=O)[C@H](Cc1c[nH]cn1)NC(C)=O)C(C)O)C(C)O)C(C)O)C(=O)N[C@@H](C)C(=O)N[C@@H](C)C(=O)N[C@@H](CCCCN)C(=O)N[C@H]1CCCCNC(=O)C[C@@H](C(=O)N[C@@H](CC(C)C)C(=O)N[C@@H](CCCCN)C(=O)N[C@@H](CCCCN)C(=O)NCC(=O)NCC(=O)N[C@H](C(N)=O)C(C)O)NC(=O)[C@H](CC(N)=O)NC(=O)[C@H](CC(C)C)NC(=O)[C@H](Cc2ccc(O)cc2)NC1=O (stereo partly shown) [Example 1] (Ac-HSDA[Thr(3ξ)]F[Thr(3ξ)]ENY[Thr(3ξ)]KLRKQ[Nle]AAKKYLNDLKKGG[Thr(3ξ)]-NH2; lactam 21-25)
- Inhibition of LPS-induced neutrophilia ([2]; Dose 0.1%): + (+ 10-30%)

- EC50 (VPAC2 receptor [1]): 1200 nM
- Relative elastase stability [3]: 12.0
Molecule: CCCC[C@H](NC(=O)[C@H](CCC(N)=O)NC(=O)[C@H](CCCCN)NC(=O)[C@H](CCCNC(=N)N)NC(=O)[C@H](CC(C)C)NC(=O)[C@H](CCCCN)NC(=O)[C@@H](NC(=O)[C@H](Cc1ccc(O)cc1)NC(=O)[C@H](CC(N)=O)NC(=O)[C@H](CCC(=O)O)NC(=O)[C@@H](NC(=O)[C@H](Cc1ccccc1)NC(=O)[C@H](CO)NC(=O)[C@H](C)NC(=O)[C@H](CC(=O)O)NC(=O)[C@H](CO)NC(=O)[C@H](Cc1c[nH]cn1)NC(C)=O)C(C)O)C(C)O)C(=O)N[C@@H](CCCCN)C(=O)N[C@@H](C)C(=O)N[C@@H](CCCCN)C(=O)N[C@H]1CCCCNC(=O)C[C@@H](C(=O)N[C@@H](CC(C)C)C(=O)N[C@@H](CCCCN)C(=O)N[C@@H](CCCCN)C(=O)NCC(=O)NCC(=O)N[C@H](C(N)=O)C(C)O)NC(=O)[C@H](CC(N)=O)NC(=O)[C@H](CC(C)C)NC(=O)[C@H](Cc2ccc(O)cc2)NC1=O (stereo partly shown) [Example 9] (Ac-HSDASF[Thr(3ξ)]ENY[Thr(3ξ)]KLRKQ[Nle]KAKKYLNDLKKGG[Thr(3ξ)]-NH2; lactam 21-25)
- Inhibition of LPS-induced neutrophilia ([2]; Dose 0.01%): + (+ 10-30%)

- Sup-T1 cAMP EC50 (VPAC2 receptor [4]): 9.45 nM
B1: Ac-His-Ser-Asp-Ala-MeVal-Phe-Thr-Glu-Asn-Tyr-thr-Lys-Leu-Arg-Lys-Gln-Nle-Ala-Ala-Lys-Lys-Tyr-Leu-Asn-Asp-Leu-Leu-Lys-Gly-Gly-Thr-NH2 (peptide)
peptide: Ac-HSDA[αMeV]FTENYTKLRKQ[Nle]AAKKYLNDLLKGGT-NH2
modifications: lactam 21-25; not fully specified (residue 11); printed as Ac-His-Ser-Asp-Ala-MeVal-Phe-Thr-Glu-Asn-Tyr-thr-Lys-Leu-Arg-Lys-Gln-Nle-Ala-Ala-Lys-Lys-Tyr-Leu-Asn-Asp-Leu-Leu-Lys-Gly-Gly-Thr-NH2

Further lines, the molecule ahead of its results:

B2: Ac-His-Ser-Asp-Ala-MeVal-Phe-Thr-Glu-Asn-Tyr-Thr-Lys-Leu-Arg-Lys-Arg-Nle-Ala-Ala-Lys-Lys-Tyr-Leu-Asn-Asp-Leu-Lys-Lys-Gly-Gly-Thr-NH2 (peptide)
peptide: Ac-HSDA[αMeV]FTENYTKLRKR[Nle]AAKKYLNDLKKGGT-NH2
modifications: lactam 21-25
SMILES: CCCC[C@H](NC(=O)[C@H](CCCNC(=N)N)NC(=O)[C@H](CCCCN)NC(=O)[C@H](CCCNC(=N)N)NC(=O)[C@H](CC(C)C)NC(=O)[C@H](CCCCN)NC(=O)[C@@H](NC(=O)[C@H](Cc1ccc(O)cc1)NC(=O)[C@H](CC(N)=O)NC(=O)[C@H](CCC(=O)O)NC(=O)[C@@H](NC(=O)[C@H](Cc1ccccc1)NC(=O)[C@@](C)(NC(=O)[C@H](C)NC(=O)[C@H](CC(=O)O)NC(=O)[C@H](CO)NC(=O)[C@H](Cc1c[nH]cn1)NC(C)=O)C(C)C)[C@@H](C)O)[C@@H](C)O)C(=O)N[C@@H](C)C(=O)N[C@@H](C)C(=O)N[C@@H](CCCCN)C(=O)N[C@H]1CCCCNC(=O)C[C@@H](C(=O)N[C@@H](CC(C)C)C(=O)N[C@@H](CCCCN)C(=O)N[C@@H](CCCCN)C(=O)NCC(=O)NCC(=O)N[C@H](C(N)=O)[C@@H](C)O)NC(=O)[C@H](CC(N)=O)NC(=O)[C@H](CC(C)C)NC(=O)[C@H](Cc2ccc(O)cc2)NC1=O
- Sup-T1 cAMP EC50 (VPAC2 receptor [4]): 10.5 nM

B3: Ac-His-Ala-Asp-Ala-MeVal-Phe-Thr-Glu-Asn-Tyr-Thr-Lys-Leu-Arg-Lys-Gln-Nle-Ala-Ala-Lys-Lys-Tyr-Leu-Asn-Asp-Leu-Lys-Lys-Gly-Gly-Thr-NH2 (peptide)
peptide: Ac-HADA[αMeV]FTENYTKLRKQ[Nle]AAKKYLNDLKKGGT-NH2
modifications: lactam 21-25
SMILES: CCCC[C@H](NC(=O)[C@H](CCC(N)=O)NC(=O)[C@H](CCCCN)NC(=O)[C@H](CCCNC(=N)N)NC(=O)[C@H](CC(C)C)NC(=O)[C@H](CCCCN)NC(=O)[C@@H](NC(=O)[C@H](Cc1ccc(O)cc1)NC(=O)[C@H](CC(N)=O)NC(=O)[C@H](CCC(=O)O)NC(=O)[C@@H](NC(=O)[C@H](Cc1ccccc1)NC(=O)[C@@](C)(NC(=O)[C@H](C)NC(=O)[C@H](CC(=O)O)NC(=O)[C@H](C)NC(=O)[C@H](Cc1c[nH]cn1)NC(C)=O)C(C)C)[C@@H](C)O)[C@@H](C)O)C(=O)N[C@@H](C)C(=O)N[C@@H](C)C(=O)N[C@@H](CCCCN)C(=O)N[C@H]1CCCCNC(=O)C[C@@H](C(=O)N[C@@H](CC(C)C)C(=O)N[C@@H](CCCCN)C(=O)N[C@@H](CCCCN)C(=O)NCC(=O)NCC(=O)N[C@H](C(N)=O)[C@@H](C)O)NC(=O)[C@H](CC(N)=O)NC(=O)[C@H](CC(C)C)NC(=O)[C@H](Cc2ccc(O)cc2)NC1=O
- Sup-T1 cAMP EC50 (VPAC2 receptor [4]): 4.75 nM

B4: Ac-His-Ala-Asp-Ala-MeVal-Phe-Thr-Glu-Asn-Tyr-Thr-Lys-Leu-Arg-Lys-Gln-Nle-Ala-Ala-Lys-Lys-Tyr-Leu-Asn-Asp-Leu-Leu-Lys-Gly-Gly-Thr-NH2 (peptide)
peptide: Ac-HADA[αMeV]FTENYTKLRKQ[Nle]AAKKYLNDLLKGGT-NH2
modifications: lactam 21-25
SMILES: CCCC[C@H](NC(=O)[C@H](CCC(N)=O)NC(=O)[C@H](CCCCN)NC(=O)[C@H](CCCNC(=N)N)NC(=O)[C@H](CC(C)C)NC(=O)[C@H](CCCCN)NC(=O)[C@@H](NC(=O)[C@H](Cc1ccc(O)cc1)NC(=O)[C@H](CC(N)=O)NC(=O)[C@H](CCC(=O)O)NC(=O)[C@@H](NC(=O)[C@H](Cc1ccccc1)NC(=O)[C@@](C)(NC(=O)[C@H](C)NC(=O)[C@H](CC(=O)O)NC(=O)[C@H](C)NC(=O)[C@H](Cc1c[nH]cn1)NC(C)=O)C(C)C)[C@@H](C)O)[C@@H](C)O)C(=O)N[C@@H](C)C(=O)N[C@@H](C)C(=O)N[C@@H](CCCCN)C(=O)N[C@H]1CCCCNC(=O)C[C@@H](C(=O)N[C@@H](CC(C)C)C(=O)N[C@@H](CC(C)C)C(=O)N[C@@H](CCCCN)C(=O)NCC(=O)NCC(=O)N[C@H](C(N)=O)[C@@H](C)O)NC(=O)[C@H](CC(N)=O)NC(=O)[C@H](CC(C)C)NC(=O)[C@H](Cc2ccc(O)cc2)NC1=O
- Sup-T1 cAMP EC50 (VPAC2 receptor [4]): 4.07 nM

Source: patent publication US20080096807A1, “Cyclic vasoactive intestinal peptide receptor-2 agonists” (priority 2006, published 2008)
